Where two headings read alike, the source gives them in different places.
Columns and labels:
[1] = in vitro; set-up: species or system CCD841, HEK293; conditions: human, hb2 cells, read-out: HB-2 Cells Viability (%)
[2] = biological target: T1, OTUB2 (OTUB2A) (Homo sapiens, UniProt Q96DC9); set-up: Intact protein LC/MS covalent labelling, fragments in pools of five, 200 uM each, 4 °C; conditions: 24 h, 4 °C, pool of five; 200 µM; covalent
T1 construct: full length residues 1-234, E. coli BL21(DE3)-R3, His tag removed by TEV, construct 27312 Da
T1 sequence (Q96DC9 1-234): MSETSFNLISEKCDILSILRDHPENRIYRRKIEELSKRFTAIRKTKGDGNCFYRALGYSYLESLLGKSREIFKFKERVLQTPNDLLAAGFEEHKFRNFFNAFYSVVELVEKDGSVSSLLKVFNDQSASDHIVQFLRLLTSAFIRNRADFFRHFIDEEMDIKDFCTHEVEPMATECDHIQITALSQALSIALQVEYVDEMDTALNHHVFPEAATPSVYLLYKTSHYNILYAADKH
Description: (§1) Incubations were performed at 200 μM for each compound and 2 μM of protein (10 μM for BSA) for 24 h at 4 °C with moderate shaking. Incubation buffers varied among proteins (PBS pH 7.4 for QSOX1 and BSA; 10 mM HEPES pH 7.5, 0.3 M NaCl, 0.5 mM TCEP for PCAF, UPS8, and NUDT7; […]; 10 mM Na2HPO4 pH 7.5 100 mM NaCl 5 mM β-mercaptoethanol for NV3CP; 20 mM Na phosphate pH 7.5 for NNMT; […]. The reaction was stopped by quenching with formic acid, 0.4% final concentration. Each protein was incubated with the electrophilic library in pools of five compounds per well. The pool’s composition maximized the difference in mass between fragments in the same well. Incubations were performed with each fragment at 200 μM, for 24 h at 4 °C, to allow the screening of proteins that are not stable for long time periods at higher temperatures. Following incubation, we used intact protein [compound left out] chromatography/mass spectrometry (LC/MS) to identify the fragments and quantify their labeling (Figure 3A). […] There was good agreement between the percent of labeling of NUDT7 by 100 random individual compounds and that obtained in pools of five (R^2=0.78; Figure S6 and Data set 2 in the Supporting Information).

[3] = biological target: T2, PCAF (Homo sapiens, UniProt Q92831); set-up: Intact protein LC/MS covalent labelling, fragments in pools of five, 200 uM each, 4 °C; conditions: 24 h, 4 °C, pool of five; 200 µM; covalent
T2 construct: gene KAT2B
T2 sequence (Q92831 whole entry, the tested form may be a part): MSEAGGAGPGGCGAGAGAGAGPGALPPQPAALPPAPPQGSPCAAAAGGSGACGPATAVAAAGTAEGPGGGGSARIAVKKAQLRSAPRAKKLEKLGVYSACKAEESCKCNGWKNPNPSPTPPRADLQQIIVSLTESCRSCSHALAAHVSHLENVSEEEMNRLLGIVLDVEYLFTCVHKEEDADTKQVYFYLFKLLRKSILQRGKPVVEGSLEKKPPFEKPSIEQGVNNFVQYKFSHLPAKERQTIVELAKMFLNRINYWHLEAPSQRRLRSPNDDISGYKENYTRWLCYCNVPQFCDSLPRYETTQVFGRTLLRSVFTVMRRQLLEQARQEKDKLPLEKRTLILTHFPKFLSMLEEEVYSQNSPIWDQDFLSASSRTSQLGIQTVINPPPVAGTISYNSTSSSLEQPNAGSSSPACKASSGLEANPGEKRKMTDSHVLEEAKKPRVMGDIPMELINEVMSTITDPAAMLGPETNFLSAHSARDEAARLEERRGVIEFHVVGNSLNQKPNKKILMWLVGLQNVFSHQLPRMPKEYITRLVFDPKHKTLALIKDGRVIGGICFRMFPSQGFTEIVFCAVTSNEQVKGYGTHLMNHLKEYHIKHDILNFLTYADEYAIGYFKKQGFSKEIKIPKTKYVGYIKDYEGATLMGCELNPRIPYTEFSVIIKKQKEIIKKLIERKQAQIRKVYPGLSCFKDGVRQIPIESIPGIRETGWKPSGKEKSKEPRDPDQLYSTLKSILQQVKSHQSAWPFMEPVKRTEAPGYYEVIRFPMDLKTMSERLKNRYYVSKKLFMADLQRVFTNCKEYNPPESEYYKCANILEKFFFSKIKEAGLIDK
Description: as §1

[4] = biological target: T3, NUDT7 (Homo sapiens, UniProt P0C024); set-up: Intact protein LC/MS covalent labelling, fragments in pools of five, 200 uM each, 4 °C; conditions: 24 h, 4 °C, pool of five; 200 µM; covalent
T3 construct: residues 14-235, E. coli, pNIC28-Bsa4, N-terminal His6 tag removed by TEV, construct 26672 Da
T3 sequence (P0C024 14-235): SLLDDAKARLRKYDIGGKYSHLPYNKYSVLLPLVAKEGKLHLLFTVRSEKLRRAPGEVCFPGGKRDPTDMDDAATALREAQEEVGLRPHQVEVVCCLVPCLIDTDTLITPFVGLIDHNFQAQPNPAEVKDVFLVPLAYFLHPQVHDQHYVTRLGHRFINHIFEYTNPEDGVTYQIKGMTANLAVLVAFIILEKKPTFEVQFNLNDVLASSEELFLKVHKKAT
Description: as §1

[5] = biological target: T4, BSA (Bos taurus, UniProt P02769); set-up: Intact protein LC/MS covalent labelling, fragments in pools of five, 200 uM each, 4 °C; conditions: 24 h, 4 °C, pool of five; 200 µM; covalent
T4 construct: gene ALB
T4 sequence (P02769 whole entry, the tested form may be a part): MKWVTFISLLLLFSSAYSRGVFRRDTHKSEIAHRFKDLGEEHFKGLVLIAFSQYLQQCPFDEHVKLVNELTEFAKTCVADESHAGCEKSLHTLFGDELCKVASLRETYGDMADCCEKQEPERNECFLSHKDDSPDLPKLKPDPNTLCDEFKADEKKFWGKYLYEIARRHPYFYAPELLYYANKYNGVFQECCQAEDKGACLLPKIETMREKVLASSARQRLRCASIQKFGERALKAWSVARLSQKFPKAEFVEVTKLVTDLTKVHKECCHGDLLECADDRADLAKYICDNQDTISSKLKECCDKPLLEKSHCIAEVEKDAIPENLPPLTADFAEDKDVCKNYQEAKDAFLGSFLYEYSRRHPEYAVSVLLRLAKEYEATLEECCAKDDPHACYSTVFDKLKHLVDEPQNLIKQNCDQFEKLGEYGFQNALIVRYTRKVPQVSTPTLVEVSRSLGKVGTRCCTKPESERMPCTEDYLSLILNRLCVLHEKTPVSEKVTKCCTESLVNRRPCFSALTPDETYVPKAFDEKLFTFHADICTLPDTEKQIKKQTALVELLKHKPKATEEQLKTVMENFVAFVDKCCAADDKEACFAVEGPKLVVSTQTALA
Description: as §1

[6] = in vitro; set-up: species or system HB2, CCD841; conditions: human, hek293 cells
[7] = in vitro; set-up: species or system HB2, HEK293; conditions: human, ccd841 cells

Structure (SMILES)	viability at 48 h, 10 µM [1] [%]	OTUB2 [2]	PCAF [3]	NUDT7 [4]	BSA [5]	viability at 48 h, 10 µM [6] [%]	viability at 48 h, 10 µM [7] [%]
O=C(CCl)N1CCN(S(=O)(=O)c2ccc3c(c2)CCC3)CC1 [PCM-0102193]	2.7	0	0	0	0	2.8	20.9
O=C(CCl)Nc1ccc2c(c1)C(=O)c1ccccc1C2=O [PCM-0102194]	1.4	0	0	0	0	0.7	13.7
O=C(CCl)NC(=O)c1ccco1 [PCM-0102195]	98	0	0	0	0	87.3	109
Cc1ccc(NC(=O)CCl)c(Br)c1 [PCM-0102196]	49.2	0.14	0	0.2	0	45.5	87.6
Cc1cc(NC(=O)CCl)on1 [PCM-0102197]	74.3	0	0	0	0	68.5	87.9
COC(=O)c1c(NC(=O)CCl)sc2c1CCCCC2 [PCM-0102200]	49.5	0	0	0.11	0	21.8	80.8
O=C(CCl)N1CCN(S(=O)(=O)c2c(F)cccc2F)CC1 [PCM-0102201]	9.5	0	0	0	0	11.1	57.6
Cc1sc(NC(=O)CCl)c(C#N)c1C [PCM-0102202]	32.8	0	0	0	0	14.4	55.2
NC(=O)C1CCCCN1C(=O)CCl (stereo not drawn) [PCM-0102203]	79.7	0	0	0	0	50.7	75.3
COC(=O)c1ccc(NC(=O)CCl)cc1 [PCM-0102204]	22.5	0	0	0	0	3.8	56.2
CCC1(C)NC(=O)N(NC(=O)CCl)C1=O (stereo not drawn) [PCM-0102205]	96.9	0	0	0	0	88	85.3
Cc1nc(NC(=O)CCl)c(Cl)cc1Cl [PCM-0102206]	110	0	0	0	0	101	105
CC1Cc2cc(S(N)(=O)=O)ccc2N1C(=O)CCl (stereo not drawn) [PCM-0102207]	58.7	0	0	0.07	0	16.5	34.2
Cc1ccc(NC(=O)CCl)cc1Cl [PCM-0102208]	3.7	0.46	0	0.19	0	1.2	37.4
O=C(CCl)Nc1cc2c(cc1Cl)OCO2 [PCM-0102209]	58.1	0.27	0	0.13	0	47.1	70.7
